Results published in patent US5377676A, “Method for determining the biodistribution of substances using fluorescence spectroscopy” (Cedars-Sinai Medical Center, priority 1993, dated 1995).

Key:
[1] = parameters: species or system male Lobund-Wistar rats; details: rat, in vivo, iv, 0.75 mg/kg
Excerpt: (§1) The experimental arrangement used to measure the fluorescence spectra during abdominal exploration included a Helium-cadmium laser (Omnichrome, Chino, Calif.) operating at 442 nm as an excitation source. A 400 micron core diameter fiber was directed at the tissue in contact mode producing a low power (17 mW) illumination. Using the same fiber, reflected and emitted light was returned to the input of a SPEX 500 spectrometer (1422 G EG&G).
(§2) Laser output was reflected at a right angle by a dichroic mirror (HR/442 nm-H7>500 nm, CVI, New Mexico) and was focused at the input of a 400 micron core diameter fiberoptic probe. The excitation output of the laser at the distal end of the fiber was 17 mW. Fluorescence was collected using the same fiber and was transmitted through the dichroic beamsplitter and guided via a fiber bundle to a 0.5 spectrograph (100 g/mm diffraction grating with a split width of 50 microns). The light was then imaged at the modified output port. A 1024 element linear diode array detector (EG&G 1422G) was attached to the exit port, and the signal was directed to a multichannel intensifier. A longpass glass filter (Schott GG475) was used to exclude the excitation light from the detector and conversions were made by an analog to digital converter and automatically stored by a computer. […] Background spectra were recorded before excitation and subtracted from the resulting data. The detection system, including the detector attenuation filter, lenses and spectrograph, was not altered or corrected for a uniform spectral response.
(§3) Spectra from the surfaces of tumor (T), skin (S), muscle (M), liver (L), kidney (K), spleen (Sp), stomach (St), small bowel (SB) and large bowel (LB) were acquired and analyzed by the OMA. […] (FIG. 1 is a schematic representation of this experimental arrangement.) A series of spectra for Photofrin and BPD-MA were recorded from photosensitized animals. (FIGS. 2 and 3). The fluorescence intensities at 540 nm (auto-fluorescence) and 630 nm (Photofrin) or 690 nm (BPD-MA) were simultaneously monitored at three sites for each organ. By using the ratio of these intensities, (I630 nm /I540 nm) or (I690 nm /540 nm), a relative value could be assigned to each area studied. In addition, this intensity ratio eliminated any geometric factor (fiber position) influence in the calibration, as well as calibration errors. The corresponding intensity ratios were used as an index for drug presence in the various tissues.
(§4) The fluorescence emitted from cancerous and normal tissues of male Lobund-Wistar rats was investigated (Lobund Laboratory, Notre Dame University, Id.). All tumors were subcutaneously implanted by inoculating 10^5 viable cells of Pollard rat prostatic adenocarcinoma (PA-III) into the right flank of each animal. This tumor model was selected because it is known to metastasize uniformly and spontaneously from extravascular sites only through ipsilateral lymphatic channels. Because of this tumor's unique, predictable spread, the contralateral side of the animal could be used as a control. In addition, cancer detection is facilitated with this model because rats with PA-III cells survive beyond forty days after implantation without evidence of physical impairment.
(§5) Two separate experiments were performed to assess the biodistribution of BPD-MA. The first study involved 21 animals and two doses of BPD-MA, 0.25 mg/kg and 0.50 mg/kg, to determine the concentration effect of BPD-MA in various tissues. The second study involved 81 animals and 0.75 mg/kg of BPD-MA to determine the biodistribution of BPD-MA and the sensitivity and specificity of LIFS biodistribution measurements.
BPD-MA (QLT Phototherapeutics, Inc., Vancouver, Canada) was administered intravenously in a dose of 0.75 mg/kg to 81 animals 4 hours prior to surgical exploration.
As in Study #1, the animals were anesthetized with Ketamine 40 mg/kg and Xylazine 5.0 mg/kg intraperitoneally, and the abdomens opened through a midline incision. […]

[2] = BPD-MA biodistribution by LIFS, Study #1; parameters: species or system male Lobund-Wistar rats; details: rat, in vivo, iv, 0.5 mg/kg
[3] = BPD-MA biodistribution by LIFS, Study #1; assay type: in vivo, male Lobund-Wistar rats; details: for I(690 nm)/I(540 nm), kidney / I(690 nm)/I(540 nm), large bowel / I(690 nm)/I(540 nm), liver / I(690 nm)/I(540 nm), mesenteric lymph nodes (MCLN) / I(690 nm)/I(540 nm), metast. L. node / I(690 nm)/I(540 nm), muscle / I(690 nm)/I(540 nm), non-met L. node / I(690 nm)/I(540 nm), skin / I(690 nm)/I(540 nm), small bowel: mean ± SD
Excerpt: as §1, §2, §3, §4, §5
BPD-MA (QLT Phototherapeutics, Inc., Vancouver, Canada) was administered to 21 animals intravenously. The animals were divided into three groups of seven animals each and injected with two different doses of BPD-MA, 0.25 mg/kg (n=7) and 0.50 mg/kg (n=7) 4-6 hours prior to surgical exploration. Seven animals served as a control. […]

[4] = in vivo; cited from earlier work
[5] = after excitation by blue light; cited from earlier work
[6] = Absorption / fluorescence of the photosensitizer; assay type: physicochemical; details: 442 nm excitation
Excerpt: as §1
Laser output was reflected at a right angle by a dichroic mirror (HR/442 nm-H7>500 nm, CVI, New Mexico) and was focused at the input of a 400 micron core diameter fiberoptic probe. The excitation output of the laser at the distal end of the fiber was 17 mW. Fluorescence was collected using the same fiber and was transmitted through the dichroic beamsplitter and guided via a fiber bundle to a 0.5 spectrograph (100 g/mm diffraction grating with a split width of 50 microns). […] Background spectra were recorded before excitation and subtracted from the resulting data. […]
Spectra from the surfaces of tumor (T), skin (S), muscle (M), liver (L), kidney (K), spleen (Sp), stomach (St), small bowel (SB) and large bowel (LB) were acquired and analyzed by the OMA. […] (FIG. 1 is a schematic representation of this experimental arrangement.) A series of spectra for Photofrin and BPD-MA were recorded from photosensitized animals. […]

[7] = Photofrin biodistribution by laser induced fluorescence spectroscopy (LIFS); assay type: in vivo, male Lobund-Wistar rats
Excerpt: as §1, §2, §3, §4
After forty-two days of observation, Photofrin (QLT Phototherapeutics, Inc., Vancouver, Canada) was administered intraperitoneally to forty-one animals 24-48 hours prior to surgical exploration in doses ranging from 0.25-7.5 mg/kg. Six animals were injected 24 hours prior to surgical exploration with 0.75 mg/kg of Photofrin. Thirty animals were injected with six different concentrations of Photofrin 48 hours prior to surgical exploration (7.5 mg/kg (n=5), 2.5 mg/kg (n=4), 1.5 mg/kg (n=3), 0.75 mg/kg (n=11), 0.50 mg/kg (n=4), and 0.25 mg/kg (n=3)). Five animals which had not been inoculated with PA-III were injected with 0.75 mg/kg 48 hours prior to surgical exploration, and served as a control. […]

[8] = 1.5 mg/kg i.p., 48 h, PA-III rats, mean ± SD
[9] = 2.5 mg/kg i.p., 48 h, PA-III rats, mean ± SD
[10] = 7.5 mg/kg i.p., 48 h, PA-III rats, mean ± SD

For “Benzoporphyrin derivative monoacid-A [BPD-MA]”, the “Fluorescence intensity ratio mean, Left Iliac LN (LILN)” value [1] was 5.22, the “Fluorescence intensity ratio mean, Mesenteric I LN (MC I)” value [1] was 2.45 and the “Fluorescence intensity ratio mean, Mesenteric II LN (MC II)” value [1] was 2.37. For the same substance, the “Fluorescence intensity ratio mean, Right Iliac LN (RILN)” value [1] was 5.86, the “Fluorescence intensity ratio mean, Right Inguinal LN (RIN)” value [1] was 4.72 and the “Fluorescence intensity ratio mean, Right Para-Aortic LN (RPAR)” value [1] was 7.40. For the same substance, the “Fluorescence intensity ratio mean, Right Sub-Renalis LN (RSBR)” value [1] was 4.50, the “Fluorescence intensity ratio mean, Right Supra-Renalis LN (RSPR)” value [1] was 4.26 and the “Fluorescence intensity ratio mean, inflammatory LN” value [1] was 3.67. The “Fluorescence intensity ratio mean, metastatic LN” value [1] was 6.26, the “Fluorescence intensity ratio mean, normal LN” value [1] was 3.06 and the “Fluorescence intensity ratio (I630 nm/I540 nm), metastatic tissue” value [2] was 6.73 ± 2.39. The “I(690 nm)/I(540 nm), kidney” value ([3]; 4 Hours, 0.25 mg/kg i.v.) was 1.04 ± 0.40, the “I(690 nm)/I(540 nm), large bowel” value ([3]; 4 Hours, 0.25 mg/kg i.v.) was 1.27 ± 0.30 and the “I(690 nm)/I(540 nm), liver” value ([3]; 4 Hours, 0.25 mg/kg i.v.) was 7.83 ± 3.69. The “I(690 nm)/I(540 nm), mesenteric lymph nodes (MCLN)” value (“I(690 nm)/I(540 nm) … (MCLN)” for short) ([3]; 4 Hours, 0.25 mg/kg i.v.) was 1.40 ± 0.27, the “I(690 nm)/I(540 nm), metast. L. node” value ([3]; 4 Hours, 0.25 mg/kg i.v.) was 3.19 ± 2.31 and the “I(690 nm)/I(540 nm), muscle” value ([3]; 4 Hours, 0.25 mg/kg i.v.) was 1.73 ± 0.47. For the same substance, the “I(690 nm)/I(540 nm), non-met L. node” value ([3]; 4 Hours, 0.25 mg/kg i.v.) was 3.55 ± 1.77, the “I(690 nm)/I(540 nm), skin” value ([3]; 4 Hours, 0.25 mg/kg i.v.) was 0.31 ± 0.12 and the “I(690 nm)/I(540 nm), small bowel” value ([3]; 4 Hours, 0.25 mg/kg i.v.) was 7.63 ± 2.73. For the same substance, the “I(690 nm)/I(540 nm), kidney” value ([3]; 4 Hours, 0.50 mg/kg i.v.) was 1.57 ± 0.32, the “I(690 nm)/I(540 nm), large bowel” value ([3]; 4 Hours, 0.50 mg/kg i.v.) was 1.59 ± 0.45 and the “I(690 nm)/I(540 nm), liver” value ([3]; 4 Hours, 0.50 mg/kg i.v.) was 15.74 ± 9.25. The “I(690 nm)/I(540 nm) … (MCLN)” value ([3]; 4 Hours, 0.50 mg/kg i.v.) was 3.12 ± 0.99, the “I(690 nm)/I(540 nm), metast. L. node” value ([3]; 4 Hours, 0.50 mg/kg i.v.) was 6.73 ± 2.39 and the “I(690 nm)/I(540 nm), muscle” value ([3]; 4 Hours, 0.50 mg/kg i.v.) was 1.62 ± 0.82. The “I(690 nm)/I(540 nm), non-met L. node” value ([3]; 4 Hours, 0.50 mg/kg i.v.) was 2.65 ± 0.62, the “I(690 nm)/I(540 nm), skin” value ([3]; 4 Hours, 0.50 mg/kg i.v.) was 0.50 ± 0.17 and the “I(690 nm)/I(540 nm), small bowel” value ([3]; 4 Hours, 0.50 mg/kg i.v.) was 9.91 ± 5.08. For the same substance, the “I(690 nm)/I(540 nm), kidney” value ([3]; 6 Hours, 0.25 mg/kg i.v.) was 0.78 ± 0.19, the “I(690 nm)/I(540 nm), large bowel” value ([3]; 6 Hours, 0.25 mg/kg i.v.) was 2.37 ± 1.48 and the “I(690 nm)/I(540 nm), liver” value ([3]; 6 Hours, 0.25 mg/kg i.v.) was 5.20 ± 2.38. For the same substance, the “I(690 nm)/I(540 nm) … (MCLN)” value ([3]; 6 Hours, 0.25 mg/kg i.v.) was 1.43 ± 0.67, the “I(690 nm)/I(540 nm), metast. L. node” value ([3]; 6 Hours, 0.25 mg/kg i.v.) was 3.70 ± 2.82 and the “I(690 nm)/I(540 nm), muscle” value ([3]; 6 Hours, 0.25 mg/kg i.v.) was 0.78 ± 0.26. The “I(690 nm)/I(540 nm), non-met L. node” value ([3]; 6 Hours, 0.25 mg/kg i.v.) was 2.77 ± 2.25, the “I(690 nm)/I(540 nm), skin” value ([3]; 6 Hours, 0.25 mg/kg i.v.) was 0.30 ± 0.15 and the “I(690 nm)/I(540 nm), small bowel” value ([3]; 6 Hours, 0.25 mg/kg i.v.) was 4.98 ± 2.83. For the same substance, the “BPD-MA retention in organs with time” value ([3]; rat, in vivo, iv) was “BPD-MA retention in all organs decreased with time”, the “Fluorescence intensity ratio (I630 nm/I540 nm), non-metastatic tissue” value ([3]; rat, in vivo, iv, 0.5 mg/kg) was 2.65 ± 0.62 and the “I(690 nm)/I(540 nm), spleen” value ([3]; rat, in vivo, iv, 0.5 mg/kg) was 1.57 ± 0.31. For the same substance, the “I(690 nm)/I(540 nm), stomach” value ([3]; rat, in vivo, iv, 0.5 mg/kg) was 2.95 ± 1.10, the “I(690 nm)/I(540 nm), tumor” value ([3]; rat, in vivo, iv, 0.5 mg/kg) was 3.44 ± 1.14 and the “Photosensitivity of the skin” value [4] was “dramatically decreased photosensitivity of the skin”. The “Characteristic red fluorescence peak” value [5] was “approximately 690 nm”.

For Photofrin, the Characteristic fluorescence peak [6] was ~ 630 nm, the “Fluorescence intensity ratio (I630 nm/I540 nm), skin” value (“Fluorescence intensity ratio … skin” for short) [7, 8] was 0.23 ± 0.06 and the “Fluorescence intensity ratio (I630 nm/I540 nm), small bowel” value [7, 8] was 0.56 ± 0.08. For the same substance, the “Fluorescence intensity ratio (I630 nm/I540 nm), spleen” value (from here on “Fluorescence intensity ratio … spleen”) [7, 8] was 1.25 ± 0.35, the “Fluorescence intensity ratio (I630 nm/I540 nm), stomach” value (“Fluorescence intensity ratio … stomach” below) [7, 8] was 0.92 ± 0.12 and the “Fluorescence intensity ratio (I630 nm/I540 nm), tumor” value (“Fluorescence intensity ratio … tumor” below) [7, 8] was 0.36 ± 0.01. For the same substance, the “Fluorescence intensity ratio (I630 nm/I540 nm), non metas L. node” value [7, 9] was 1.75 ± 1.06, the “Fluorescence intensity ratio … skin” value [7, 9] was 0.22 ± 0.04 and the “Fluorescence intensity ratio (I630 nm/I540 nm), small bowel” value [7, 9] was 0.57 ± 0.30. For the same substance, the “Fluorescence intensity ratio … spleen” value [7, 9] was 0.72 ± 0.25, the “Fluorescence intensity ratio … stomach” value [7, 9] was 0.26 ± 0.01 and the “Fluorescence intensity ratio … tumor” value [7, 9] was 0.70 ± 0.43. For the same substance, the “Fluorescence intensity ratio … skin” value [7, 10] was 0.25 ± 0.04, the “Fluorescence intensity ratio (I630 nm/I540 nm), small bowel” value [7, 10] was 0.96 ± 0.33 and the “Fluorescence intensity ratio … spleen” value [7, 10] was 1.56 ± 0.68. For the same substance, the “Fluorescence intensity ratio … stomach” value [7, 10] was 0.62 ± 0.24, the “Fluorescence intensity ratio … tumor” value [7, 10] was 2.45 ± 1.00 and the “Dose at which metastatic and non-metastatic lymph nodes are distinguished (selectivity)” value ([7]; rat, in vivo, 2880 min) was “higher than 0.25 mg/kg”.
